Laboratory results as given in US12246002B2, “Pharmaceutical composition for prevention or treatment of circadian rhythm-related disorders, comprising oxyiminomethylbenzene derivative as active ingredient” (KOREA UNIVERSITY RESEARCH AND BUSINESS FOUNDATION, priority 2018, dated 2025).
pEC50: −log10 of the molar value.

What was measured:
CLOCK:BMAL1 dimer = experiment: E-box-LUC reporter assay of transcriptional activity of CLOCK:BMAL1 dimer in NIH-3T3 fibroblast line; assay type: cell-based; conditions: NIH-3T3 E-box-LUC cells; for Max (%) maximum activity of E-box-LUC reporter compared to the control group: four parameter logistic fit, DMSO control
Description: The NIH-3T3 fibroblast line (Non-patent document 6) expressing the E-box-LUC reporter was used to evaluate the effect of the oxyiminomethylbenzene derivative on the transcriptional activity of the CLOCK:BMAL1 dimer mediated by E-box. Reporter-expressing fibroblast line was maintained and cultured in an incubator in a humidified state at 5% carbon dioxide and 37 degrees Celsius, using Dulbecco's modified eagles medium (Invitrogen) having 10% fetal bovine serum, 1% penicillin/streptomycin (Invitrogen) and 1% L-glutamine added thereto.
(§1) The reporter-expressing cell line was dispensed and cultured in a 48-well culture plate 24 hours before compound treatment. The cultured cells were finally treated with a compound to a concentration of 0.1, 0.3, 1.0, 3.0, 10, 30 or 100 μM. As a control group (0 μM), cells treated with the same amount of dimethyl sulfoxide (DMSO) were used. After 36 hours elapsed after treatment of the compound, the cells were washed twice with 1× D-PBS, and was lysed for 15 minutes using 100 μl of a cell lysis buffer (Promega) per well. After reacting a 20 μl sample of the lysate with the same amount of a luciferase assay reagent (Promega), the luciferase activity was measured using a luminometer (TD-20/20 Luminometer, Turner systems). The measured luciferase activity was corrected based on the protein content of the lysate. The protein content was measured using a Bradford staining reagent from Bio-rad.
(§2) The concentration-response correlation for each derivative was converted to a standard curve using Four Parameter Logistic Equation. The calculation process utilized the statistical analysis function provided by SigmaPlot 10.0 ([…], Systat Software Inc.). Based on the concentration-response curve, the maximum activity (Max) and EC50 values of each derivative were calculated and input in [Table 1]. When the compound induces cell death, cytotoxicity (Tox.) was input to the EC50 field. The concentration-reaction correlation curves of compounds of Chemical Formula 8-9, 9-9, 8-10 and 9-10 as a representative example are shown in FIG. 1.

NIH-3T3 fibroblast line = experiment: Cytotoxicity (cell death) seen in the E-box-LUC reporter assay; assay type: cell-based; conditions: for cytotoxicity (Tox.) input to the EC50 field when the compound induces cell death: NIH-3T3 E-box-LUC cells, 0.1-100 μM, 36 hours
Description: as §1, §2

PER2-LUC fusion protein = experiment: Circadian rhythm expression of PER2-LUC fusion protein in PER2-LUC knock-in fibroblasts (real-time bioluminescence, Cosinor analysis); assay type: cell-based, mouse; conditions: 20 μM, PER2-LUC KI fibroblasts, FIG. 3; for amplitude of the circadian rhythm expression of the PER2-LUC fusion protein: DEX synchronized, up to 5 days
Description: The effects of the compounds (8-9 and 8-10) prepared in Example 1 on the circadian rhythm expression of the molecular biological clock whose the cells are expressed through inhibition of CRY and enhancement of transcriptional activity of CLOCK:BMAL1 were evaluated. To this end, a mutant fibroblast line (PER2-LUC knock-in fibroblast) was used in which a PER2-LUC fusion protein is expressed via linking the luciferase gene from the position where the stop codon of the PER2 gene is located. The cell line was established from lung tissue of PER2-LUC knock-in mutant mice (Non-patent document 31) 1 week after birth. PER2-LUC knock-in (KI) fibroblasts was maintained and cultured in the incubator under a humidified state at 5% carbon dioxide and 37 degrees Celsius using Dulbecco's modified Eagle medium supplemented with 10% serum, 1% penicillin/streptomycin, and 1% L-glutamine.
After treating the cultured cells with 200 nM dexamethasone (DEX) for 2 hours for synchronization, the DEX was replaced with a medium including the substrate of luciferase that is, luciferin (final concentration 0.1 mM) with 20 μM of the compound of Chemical Formula 8-9 or 8-10. As a control group, cells (VEH) treated with the same amount of dimethyl sulfoxide instead of the compound were used. As another comparative group, the cells treated with a 2-ethoxypropionic acid-based CRY inhibitor (Non-patent document 6), that is, KS15 (final concentration 20 μM) was used. The control and the KS15-treated cells were also replaced with a medium including luciferin of the same concentration.
Bioluminescence signals generated from cells cultured in a medium including the compound and luciferin were continuously measured for up to 5 days at 10-minute intervals using a real-time bioluminescence measurement equipment (Kronos-DIO, ATTO). The results were identified through statistical detrending. The circadian rhythm expression pattern of the PER2-LUC fusion protein was analyzed using the Cosinor analysis program (free distribution on http://www.circadian.org) to determine the amplitude, period, and robustness of the periodicity. Based on the results obtained through 4 replicate experiments, the statistical significance of the change according to compound treatment was verified.

Row | SMILES | Max (%) maximum activity of E-box-LUC reporter compared to the control group (CLOCK:BMAL1 dimer; 0.1-100 μM, 36 hours) [%] | other results
1 | COC(=O)COc1cccc(C(C)=NOCc2cccc(C(F)(F)F)c2)c1 [Compound 8-1, methyl 2-{3-[N-{[3-(trifluoromethyl)phenyl]methoxy}ethanimidoyl]phenoxy}acetate] |  | pEC50 (CLOCK:BMAL1 dimer; 0.1-100 μM, 36 hours): 4.56
2 | COC(=O)COc1cccc(C(C)=NOCc2ccc(Br)cc2)c1 [Compound 8-5, methyl 2-(3-{N-[(4-bromophenyl)methoxy]ethanimidoyl}phenoxy)acetate] |  | cytotoxicity (Tox.) input to the EC50 field when the compound induces cell death (NIH-3T3 fibroblast line): (Tox.)
3 | CC(=NOCc1ccc(Br)cc1)c1cccc(OCC(=O)O)c1 [Compound 8-6, (3-{N-[(4-bromophenyl)methoxy]ethanimidoyl}phenoxy)acetic acid] | 123.78 | cytotoxicity (Tox.) input to the EC50 field when the compound induces cell death (NIH-3T3 fibroblast line): (Tox.)
4 | CC(=NOCc1ccc(Br)cc1)c1cccc(OCC(=O)NCc2ccccn2)c1 [Compound 8-7, 2-{3-[N-(4-bromophenyl)methoxyethanimidoyl]phenoxy}-N-[(pyridin-2-yl)methyl]acetamide] | 129.69 | 
5 | CC(=NOCc1ccc(Br)cc1)c1cccc(OCC(=O)NCCc2ncc[nH]2)c1 [Compound 8-8, 2-{3-[N-(4-bromophenyl)methoxyethanimidoyl]phenoxy}-N-[2-(1H-imidazol-2-yl)ethyl]acetamide] | 121.10 | cytotoxicity (Tox.) input to the EC50 field when the compound induces cell death (NIH-3T3 fibroblast line): (Tox.)
6 | COC(=O)COc1cccc(C(C)=NOCc2ccc([N+](=O)[O-])cc2)c1 [Compound 8-9, methyl 2-(3-{N-[(4-nitrophenyl)methoxy]ethanimidoyl}phenoxy)acetate] |  | cytotoxicity (NIH-3T3 fibroblast line; at up to 100 μM): No significant cytotoxicity; amplitude of the circadian rhythm expression of the PER2-LUC fusion protein (PER2-LUC fusion protein): increases the amplitude of the circadian rhythm expression of the PER2-LUC fusion protein at a significant level; period of the circadian rhythm expression of the PER2-LUC fusion protein (PER2-LUC fusion protein): not affecting the period; robustness of the circadian rhythm expression of the PER2-LUC fusion protein (PER2-LUC fusion protein): not affecting the period or robustness; activity of E-box-LUC (concentration-response, FIG. 1) (CLOCK:BMAL1 dimer): increase the activity of E-box-LUC in a concentration-dependent manner
7 | CC(=NOCc1ccc([N+](=O)[O-])cc1)c1cccc(OCC(=O)O)c1 [Compound 8-10, (3-{N-[(4-nitrophenyl)methoxy]ethanimidoyl}phenoxy)acetic acid] |  | amplitude of the circadian rhythm expression of the PER2-LUC fusion protein (PER2-LUC fusion protein): increases the amplitude of the circadian rhythm expression of the PER2-LUC fusion protein at a significant level; period of the circadian rhythm expression of the PER2-LUC fusion protein (PER2-LUC fusion protein): not affecting the period; robustness of the circadian rhythm expression of the PER2-LUC fusion protein (PER2-LUC fusion protein): not affecting the period or robustness; activity of E-box-LUC (concentration-response, FIG. 1) (CLOCK:BMAL1 dimer): increase the activity of E-box-LUC in a concentration-dependent manner
8 | CC(=NOCc1ccc(S(C)(=O)=O)cc1)c1cccc(OCC(=O)O)c1 [Compound 8-12, {3-[N-{[4-(methanesulfonyl)phenyl]methoxy}ethanimidoyl]phenoxy}acetic acid] | 98.71 | 
9 | COC(=O)COc1cccc(C(C)=NOCc2ccc(F)cc2)c1 [Compound 8-13] | 119.93 | cytotoxicity (Tox.) input to the EC50 field when the compound induces cell death (NIH-3T3 fibroblast line): (Tox.)
10 | COC(=O)COc1ccc(C(C)=NOCc2cccc(C(F)(F)F)c2)cc1 [Compound 9-1, methyl 2-{4-[N-{[3-(trifluoromethyl)phenyl]methoxy}ethanimidoyl]phenoxy}acetate] | 107.89 | 
11 | CC(=NOCc1cccc(C(F)(F)F)c1)c1ccc(OCC(=O)O)cc1 [Compound 9-2, {4-[N-{[3-(trifluoromethyl)phenyl]methoxy}ethanimidoyl]phenoxy}acetic acid] | 115.15 | 
12 | COC(=O)COc1ccc(C(C)=NOCc2ccc(OC)cc2)cc1 [Compound 9-3, methyl 2-(4-{N-[(4-methoxyphenyl)methoxy]ethanimidoyl}phenoxy)acetate] | 103.87 | 
13 | COc1ccc(CON=C(C)c2ccc(OCC(=O)O)cc2)cc1 [Compound 9-4, (4-{N-[(4-methoxyphenyl)methoxy]ethanimidoyl}phenoxy)acetic acid] | 102.65 | 
14 | COC(=O)COc1ccc(C(C)=NOCc2ccc(Br)cc2)cc1 [Compound 9-5, methyl 2-(4-{N-[(4-bromophenyl)methoxy]ethanimidoyl}phenoxy)acetate] | 111.88 | 
15 | CC(=NOCc1ccc(Br)cc1)c1ccc(OCC(=O)O)cc1 [Compound 9-6, (4-{N-[(4-bromophenyl)methoxy]ethanimidoyl}phenoxy)acetic acid] | 106.70 | 
16 | CC(=NOCc1ccc(Br)cc1)c1ccc(OCC(=O)NCc2ccccn2)cc1 [Compound 9-7, 2-{4-[N-(4-bromophenyl)methoxyethanimidoyl]phenoxy}-N-[(pyridin-2-yl)methyl]acetamide] | 135.47 | 
17 | CC(=NOCc1ccc(Br)cc1)c1ccc(OCC(=O)NCCc2ncc[nH]2)cc1 [Compound 9-8, 2-{4-[N-(4-bromophenyl)methoxyethanimidoyl]phenoxy}-N-[2-(1H-imidazol-2-yl)ethyl]acetamide] | 120.89 | 
18 | COC(=O)COc1ccc(C(C)=NOCc2ccc([N+](=O)[O-])cc2)cc1 [Compound 9-9, methyl 2-(4-{N-[(4-nitrophenyl)methoxy]ethanimidoyl}phenoxy)acetate] | 113.52 | 
19 | CC(=NOCc1ccc([N+](=O)[O-])cc1)c1ccc(OCC(=O)O)cc1 [Compound 9-10, (4-{N-[(4-nitrophenyl)methoxy]ethanimidoyl}phenoxy)acetic acid] | 108.43 | 
20 | COC(=O)COc1ccc(C(C)=NOCc2ccc(S(C)(=O)=O)cc2)cc1 [Compound 9-11, methyl 2-{4-[N-{[4-(methanesulfonyl)phenyl]methoxy}ethanimidoyl]phenoxy}acetate] | 100.39 | 
21 | CC(=NOCc1ccc(S(C)(=O)=O)cc1)c1ccc(OCC(=O)O)cc1 [Compound 9-12, {4-[N-{[4-(methanesulfonyl)phenyl]methoxy}ethanimidoyl]phenoxy}acetic acid] | 111.38 | 
